According to US5670154A, “Reducing tyrosinase activity” (priority 1994, dated 1997):

System: tyrosinase
Experiment: Tyrosinase inhibition, absorbance of Dopa-Chroma at 475 nm
Type: biochemical, mushroom
Conditions: for Inhibition (%): Inhibitory agent 0.15mg/ml, tyrosine substrate, 30 minutes at 37° C.; for Relative strength of tyrosinase inhibition among the catechins: comparison of the catechins of Table 1
Protocol: The level of tyrosinase, inhibition was measured according to the following method.
50 μl of the enzyme (8300 U/ml) (Source:mushroom, SIGMA) was added to a mixture of 250 μl of tyrosine substrate solution (0.3 mg/ml), 250 μl of the inhibiting (polyphenol) solution (0.5 mg/ml), 250 μl of Macllvain buffer solution and left for 30 minutes at 37° C. After this time the absorbance of the red colored Dopa-Chroma formed was measured at 475 nm.
Inhibition(%)=[(A-B)-(C-D)]/(A-B)×100
Where A, B, C, D represent the absorbance of solutions A, B, C and D as defined below, measured at 475 nm respectively.
A is the tyrosine+enzyme solution
B is the tyrosine solution
C is the tyrosine+enzyme+polyphenol solution
D is the tyrosine+polyphenol solution

Inhibition (%)	SMILES	Relative strength of tyrosinase inhibition among the catechins
95.1%	O=C(O[C@@H]1Cc2c(O)cc(O)cc2O[C@@H]1c1ccc(O)c(O)c1)c1cc(O)c(O)c(O)c1 [Epicatechin gallate, (-)Epicatechin gallate]	strongest inhibitors of tyrosinase
11.9%	Oc1cc(O)c2c(c1)O[C@H](c1ccc(O)c(O)c1)[C@H](O)C2 [Epicatechin, (-)Epicatechin]	–
17.5%	Oc1cc(O)c2c(c1)O[C@H](c1cc(O)c(O)c(O)c1)[C@H](O)C2 [Epigallocatechin, (-)Epigallocatechin]	–

SMILES	Inhibition (%)	Relative strength of tyrosinase inhibition among the catechins
O=C(O[C@@H]1Cc2c(O)cc(O)cc2O[C@@H]1c1cc(O)c(O)c(O)c1)c1cc(O)c(O)c(O)c1 [Epigallocatechin gallate, (-)Epigallocatechin gallate]	79.5%	strongest inhibitors of tyrosinase
